Active and inactive are the calls of the source. No rule for the calls is given here.
System: CCRIS mutagenicity, Ames/micronucleus/aberration tests
Experiment: CCRIS mutagenicity studies

Structure (SMILES): Cc1cnc2ccc3c(nc(N)n3C)c2n1
- mutagenic call (End Point: IN VIVO MICRONUCLEUS, Test System: BONE MARROW POLYCHROMATIC ERYTHROCYTES, Species: MOUSE, Strain/Sex: BALB/C/MALE, Route: IP INJECTION): inactive; negative
- mutagenic call (Test System: AMES SALMONELLA TYPHIMURIUM, Strain/Indicator: TA98, Metabolic Activation: CYNOMOLGUS MONKEY, LIVER, MICROSOMES, Method: PREINCUBATION): inactive; negative
- mutagenic call (Test System: AMES SALMONELLA TYPHIMURIUM, Strain/Indicator: TA98, Metabolic Activation: CYNOMOLOGUS MONKEY, LIVER, MICROSOMES, 2,3,7,8-TETRACHLORODIBENZO-P-DIOXIN, Method: PREINCUBATION): active; positive
- mutagenic call (Test System: AMES SALMONELLA TYPHIMURIUM, Strain/Indicator: TA98, Metabolic Activation: CYNOMOLOGUS MONKEY, LIVER, MICROSOMES, 2-AMINO-3-METHYLIMIDAZO[4,5-F]QUINOLINE, Method: PREINCUBATION): active; positive
- mutagenic call (Test System: AMES SALMONELLA TYPHIMURIUM, Strain/Indicator: TA98, Metabolic Activation: CYNOMOLOGUS MONKEY, LIVER, MICROSOMES, RIFAMPICIN, Method: PREINCUBATION): inactive; negative
- mutagenic call (Test System: AMES SALMONELLA TYPHIMURIUM, Strain/Indicator: TA98, Metabolic Activation: HUMAN, LIVER, MICROSOMES, Method: PREINCUBATION): active; positive
- mutagenic call (Test System: AMES SALMONELLA TYPHIMURIUM, Strain/Indicator: TA98, Metabolic Activation: MONKEY, LIVER, MICROSOMES, Method: PREINCUBATION): active; positive
- mutagenic call (Test System: AMES SALMONELLA TYPHIMURIUM, Strain/Indicator: TA98, Metabolic Activation: NONE, Method: PREINCUBATION): inactive; negative
- mutagenic call (Test System: AMES SALMONELLA TYPHIMURIUM, Strain/Indicator: TA98, Metabolic Activation: PATAS MONKEY, LIVER, MICROSOMES, Method: PREINCUBATION): active; positive
- mutagenic call (Test System: AMES SALMONELLA TYPHIMURIUM, Strain/Indicator: TA98, Metabolic Activation: RABBIT (6 TO 9 D OF AGE), LIVER, MICROSOMES, 3-METHYLCHOLANTHRENE, Method: PREINCUBATION): inactive; negative
- mutagenic call (Test System: AMES SALMONELLA TYPHIMURIUM, Strain/Indicator: TA98, Metabolic Activation: RABBIT (6 TO 17 D OF AGE), LIVER, MICROSOMES, Method: PREINCUBATION): inactive; negative
- mutagenic call (Test System: AMES SALMONELLA TYPHIMURIUM, Strain/Indicator: TA98, Metabolic Activation: RABBIT (9 D OF AGE TO ADULT), LIVER, MICROSOMES, 3-METHYLCHOLANTHRENE, Method: PREINCUBATION): active; positive
- mutagenic call (Test System: AMES SALMONELLA TYPHIMURIUM, Strain/Indicator: TA98, Metabolic Activation: RABBIT (17 D OF AGE TO ADULT), LIVER, MICROSOMES, Method: PREINCUBATION): active; positive
- mutagenic call (Test System: AMES SALMONELLA TYPHIMURIUM, Strain/Indicator: TA98, Metabolic Activation: RAT, LIVER, MICROSOMES, Method: PREINCUBATION): active; positive
- mutagenic call (Test System: AMES SALMONELLA TYPHIMURIUM, Strain/Indicator: TA98, Metabolic Activation: RAT, LIVER, S-9, AROCLOR 1254, Method: PREINCUBATION): active; positive
- mutagenic call (Test System: AMES SALMONELLA TYPHIMURIUM, Strain/Indicator: TA98, Metabolic Activation: RAT, LIVER, S-9, AROCLOR 1254, Method: STANDARD PLATE): active; positive
- mutagenic call (Test System: AMES SALMONELLA TYPHIMURIUM, Strain/Indicator: TA100, Metabolic Activation: NONE, Method: PREINCUBATION): inactive; negative
- mutagenic call (Test System: AMES SALMONELLA TYPHIMURIUM, Strain/Indicator: TA100, Metabolic Activation: RAT, LIVER, S-9, AROCLOR 1254, Method: PREINCUBATION): active; positive
- mutagenic call (Test System: AMES SALMONELLA TYPHIMURIUM, Strain/Indicator: YG1019, Metabolic Activation: RAT LIVER S-9, AROCLOR, Method: PREINCUBATION): active; positive
- mutagenic call (Test System: CHINESE HAMSTER V-79, Strain/Indicator: V-79/6-THIOGUANINE, Metabolic Activation: RAT, LIVER, S-9, AROCLOR 1254): inactive; negative
- mutagenic call (Test System: UDS HAMSTER HEPATOCYTES, Strain/Indicator: THY INCORP, Metabolic Activation: NONE, Method: LIQUID SCINTILLATION COUNTING): active; positive
- mutagenic call (Test System: UDS HUMAN HEPATOCYTES, Strain/Indicator: THY INCORP, Metabolic Activation: NONE, Method: AUTORADIOGRAPHY): active; positive
- mutagenic call (Test System: UDS MOUSE HEPATOCYTES, Strain/Indicator: THY INCORP, Metabolic Activation: NONE, Method: AUTORADIOGRAPHY): inactive; negative
- mutagenic call (Test System: UDS RAT HEPATOCYTES, Strain/Indicator: THY INCORP, Metabolic Activation: NONE, Method: AUTORADIOGRAPHY): inactive; negative
- mutagenic call (Test System: UDS RAT HEPATOCYTES, Strain/Indicator: THY INCORP, Metabolic Activation: NONE, Method: LIQUID SCINTILLATION COUNTING): inactive; negative

Structure (SMILES): C[N+](C)(C)CC1CO1 (stereo not drawn)
- mutagenic call (Test System: UDS RAT HEPATOCYTES, Strain/Indicator: THY INCORP, Metabolic Activation: NONE): active; positive

Structure (SMILES): COc1c(C(=O)O)c(=O)[nH]c2ccccc12
- mutagenic call (Test System: AMES SALMONELLA TYPHIMURIUM, Strain/Indicator: TA98, Metabolic Activation: NONE, Method: STANDARD PLATE): inactive; negative
- mutagenic call (Test System: AMES SALMONELLA TYPHIMURIUM, Strain/Indicator: TA98, Metabolic Activation: RAT LIVER S-9, PHENOBARTITAL, Method: STANDARD PLATE): inactive; negative
